# Literature values in paper PMC3018413, “Uptake and Metabolism of the Novel Peptide Angiotensin-(1-12) by Neonatal Cardiac Myocytes” (PLoS ONE, 2011).
# B1: angiotensinogen: angiotensinogen protein bound to human renal tubular epithelial cells, cited study (protein, UniProt P01019 25-476, looked up)
# Angiotensinogen: DRVYIHPFHLVIHNESTCEQLAKANAGKPKDPTFIPAPIQAKTSPVDEKALQDQLVLVAAKLDTEDKLRAAMVGMLANFLGFRIYGMHSELWGVVHGATVLSPTAVFGTLASLYLGALDHTADRLQAILGVPWKDKNCTSRLDAHKVLSALQAVQGLLVAQGRADSQAQLLLSTVVGVFTAPGLHLKQPFVQGLALYTPVVLPRSLDFTELDVAAEKIDRFMQAVTGWKTGCSLMGASVDSTLAFNTYVHFQGKMKGFSLLAEPQEFWVDNSTSVSVPMLSGMGTFQHWSDIQDNFSVTQVPFTESACLLLIQPHYASDLDKVEGLTFQQNSLNWMKKLSPRTIHLTMPQLVLQGSYDLQDLLAQAELPAILHTELNLQKLSNDRIRVGEVLNSIFFELEADEREPTESTQQLNKPEVLEVTLNRPFLFAVYDQSATALHFLGRVANPLSTA
# Legend:
# [1] = tested on: Ang II formation from Ang-(1–12); conditions: ref Prosser et al. [29] as printed
# Text: In the controlled environment of a cell culture system, neonatal cardiac myocytes of SHR and WKY metabolized ^125I-Ang-(1–12) into Ang I, leading to sequential production of Ang II, Ang-(1–7), and other smaller angiotensin fragments. […] This new observation is in ...
# [2] = tested on: human renal tubular epithelial cells
Molecule,inhibition of Ang II formation from Ang-(1–12) [1],bound angiotensinogen that could be displaced [2] [%]
CC(C)C[C@H](NC(=O)[C@@H](NC(=O)N[C@@H](Cc1ccccc1)C(=O)O)[C@@H]1CCN=C(N)N1)C(=O)N[C@H](C=O)Cc1ccccc1 [chymostatin],completely inhibited,
B1,,≤ 50
